Experimental data reported in the CheMixHub viscosity set.
± gives the uncertainty stated by the source.

Assay: xn = mol fraction of the nth substance listed

CCCCOCCOCCOCCO + O
viscosity (293.15 K, 101 kPa, x1 = 0.009612): 1.536 ± 0.016 mPa·s
viscosity (293.15 K, 101 kPa, x1 = 0.02136): 2.342 ± 0.021 mPa·s
viscosity (293.15 K, 101 kPa, x1 = 0.03602): 3.496 ± 0.028 mPa·s
viscosity (293.15 K, 101 kPa, x1 = 0.05509): 5.103 ± 0.036 mPa·s
viscosity (293.15 K, 101 kPa, x1 = 0.08023): 7.018 ± 0.045 mPa·s
viscosity (293.15 K, 101 kPa, x1 = 0.1156): 9.156 ± 0.055 mPa·s
viscosity (293.15 K, 101 kPa, x1 = 0.1685): 11.21 ± 0.07 mPa·s
viscosity (293.15 K, 101 kPa, x1 = 0.2571): 12.63 ± 0.07 mPa·s
viscosity (293.15 K, 101 kPa, x1 = 0.3308): 12.68 ± 0.07 mPa·s
viscosity (293.15 K, 101 kPa, x1 = 0.4398): 12.35 ± 0.07 mPa·s
viscosity (293.15 K, 101 kPa, x1 = 0.5322): 11.78 ± 0.07 mPa·s
viscosity (293.15 K, 101 kPa, x1 = 0.5991): 11.36 ± 0.07 mPa·s
viscosity (293.15 K, 101 kPa, x1 = 0.7291): 10.51 ± 0.06 mPa·s
viscosity (293.15 K, 101 kPa, x1 = 0.8068): 10.13 ± 0.06 mPa·s
viscosity (293.15 K, 101 kPa, x1 = 0.8905): 9.778 ± 0.058 mPa·s
viscosity (303.15 K, 101 kPa, x1 = 0.009612): 1.175 ± 0.012 mPa·s
viscosity (303.15 K, 101 kPa, x1 = 0.02136): 1.741 ± 0.015 mPa·s
viscosity (303.15 K, 101 kPa, x1 = 0.03602): 2.526 ± 0.02 mPa·s
viscosity (303.15 K, 101 kPa, x1 = 0.05509): 3.614 ± 0.026 mPa·s
viscosity (303.15 K, 101 kPa, x1 = 0.08023): 4.832 ± 0.032 mPa·s
viscosity (303.15 K, 101 kPa, x1 = 0.1156): 6.189 ± 0.039 mPa·s
viscosity (303.15 K, 101 kPa, x1 = 0.1685): 7.424 ± 0.045 mPa·s
viscosity (303.15 K, 101 kPa, x1 = 0.2571): 8.311 ± 0.05 mPa·s
viscosity (303.15 K, 101 kPa, x1 = 0.3308): 8.439 ± 0.051 mPa·s
viscosity (303.15 K, 101 kPa, x1 = 0.4398): 8.238 ± 0.05 mPa·s
viscosity (303.15 K, 101 kPa, x1 = 0.5322): 7.929 ± 0.048 mPa·s
viscosity (303.15 K, 101 kPa, x1 = 0.5991): 7.685 ± 0.047 mPa·s
viscosity (303.15 K, 101 kPa, x1 = 0.7291): 7.271 ± 0.044 mPa·s
viscosity (303.15 K, 101 kPa, x1 = 0.8068): 7.083 ± 0.043 mPa·s
viscosity (303.15 K, 101 kPa, x1 = 0.8905): 6.856 ± 0.042 mPa·s
viscosity (313.15 K, 101 kPa, x1 = 0.009612): 0.9391 ± 0.0093 mPa·s
viscosity (313.15 K, 101 kPa, x1 = 0.02136): 1.356 ± 0.012 mPa·s
viscosity (313.15 K, 101 kPa, x1 = 0.03602): 1.935 ± 0.015 mPa·s
viscosity (313.15 K, 101 kPa, x1 = 0.05509): 2.685 ± 0.019 mPa·s
viscosity (313.15 K, 101 kPa, x1 = 0.08023): 3.562 ± 0.024 mPa·s
viscosity (313.15 K, 101 kPa, x1 = 0.1156): 4.476 ± 0.029 mPa·s
viscosity (313.15 K, 101 kPa, x1 = 0.1685): 5.289 ± 0.034 mPa·s
viscosity (313.15 K, 101 kPa, x1 = 0.2571): 5.912 ± 0.037 mPa·s
viscosity (313.15 K, 101 kPa, x1 = 0.3308): 6.038 ± 0.038 mPa·s
viscosity (313.15 K, 101 kPa, x1 = 0.4398): 5.926 ± 0.037 mPa·s
viscosity (313.15 K, 101 kPa, x1 = 0.5322): 5.747 ± 0.036 mPa·s
viscosity (313.15 K, 101 kPa, x1 = 0.5991): 5.612 ± 0.035 mPa·s
viscosity (313.15 K, 101 kPa, x1 = 0.7291): 5.407 ± 0.034 mPa·s
viscosity (313.15 K, 101 kPa, x1 = 0.8068): 5.264 ± 0.033 mPa·s
viscosity (313.15 K, 101 kPa, x1 = 0.8905): 5.143 ± 0.033 mPa·s
viscosity (323.15 K, 101 kPa, x1 = 0.009612): 0.7657 ± 0.0075 mPa·s
viscosity (323.15 K, 101 kPa, x1 = 0.02136): 1.094 ± 0.009 mPa·s
viscosity (323.15 K, 101 kPa, x1 = 0.03602): 1.519 ± 0.012 mPa·s
viscosity (323.15 K, 101 kPa, x1 = 0.05509): 2.137 ± 0.015 mPa·s
viscosity (323.15 K, 101 kPa, x1 = 0.08023): 2.692 ± 0.018 mPa·s
viscosity (323.15 K, 101 kPa, x1 = 0.1156): 3.293 ± 0.022 mPa·s
viscosity (323.15 K, 101 kPa, x1 = 0.1685): 3.913 ± 0.025 mPa·s
viscosity (323.15 K, 101 kPa, x1 = 0.2571): 4.406 ± 0.028 mPa·s
viscosity (323.15 K, 101 kPa, x1 = 0.3308): 4.477 ± 0.029 mPa·s
viscosity (323.15 K, 101 kPa, x1 = 0.4398): 4.406 ± 0.028 mPa·s
viscosity (323.15 K, 101 kPa, x1 = 0.5322): 4.329 ± 0.028 mPa·s
viscosity (323.15 K, 101 kPa, x1 = 0.5991): 4.257 ± 0.027 mPa·s
viscosity (323.15 K, 101 kPa, x1 = 0.7291): 4.147 ± 0.027 mPa·s
viscosity (323.15 K, 101 kPa, x1 = 0.8068): 4.088 ± 0.026 mPa·s
viscosity (323.15 K, 101 kPa, x1 = 0.8905): 3.936 ± 0.025 mPa·s

C[NH+](C)CCO.O=C([O-])CC(O)C(=O)O (stereo unspecified) + O
viscosity (298 K, 101 kPa, x2 = 0.89): 18.3 mPa·s
viscosity (313 K, 101 kPa, x2 = 0.89): 10.3 mPa·s

CCCCOCCOCCOCCO + ClC(Cl)=C(Cl)Cl
viscosity (298.15 K, 101.33 kPa, x2 = 0.0067): 0.864 ± 0.009 mPa·s
viscosity (298.15 K, 101.33 kPa, x2 = 0.0173): 0.895 ± 0.009 mPa·s
viscosity (298.15 K, 101.33 kPa, x2 = 0.0345): 0.95 ± 0.009 mPa·s
viscosity (298.15 K, 101.33 kPa, x2 = 0.0476): 0.995 ± 0.01 mPa·s
viscosity (298.15 K, 101.33 kPa, x2 = 0.06): 1.04 ± 0.01 mPa·s
viscosity (298.15 K, 101.33 kPa, x2 = 0.0815): 1.124 ± 0.011 mPa·s
viscosity (298.15 K, 101.33 kPa, x2 = 0.1063): 1.227 ± 0.012 mPa·s
viscosity (298.15 K, 101.33 kPa, x2 = 0.1471): 1.408 ± 0.014 mPa·s
viscosity (298.15 K, 101.33 kPa, x2 = 0.184): 1.601 ± 0.016 mPa·s
viscosity (298.15 K, 101.33 kPa, x2 = 0.2264): 1.828 ± 0.018 mPa·s
viscosity (298.15 K, 101.33 kPa, x2 = 0.2617): 2.046 ± 0.02 mPa·s
viscosity (298.15 K, 101.33 kPa, x2 = 0.3067): 2.351 ± 0.023 mPa·s
viscosity (298.15 K, 101.33 kPa, x2 = 0.348): 2.66 ± 0.027 mPa·s
viscosity (298.15 K, 101.33 kPa, x2 = 0.377): 2.889 ± 0.029 mPa·s
viscosity (298.15 K, 101.33 kPa, x2 = 0.415): 3.192 ± 0.033 mPa·s
viscosity (298.15 K, 101.33 kPa, x2 = 0.4588): 3.55 ± 0.037 mPa·s
viscosity (298.15 K, 101.33 kPa, x2 = 0.491): 3.816 ± 0.04 mPa·s
viscosity (298.15 K, 101.33 kPa, x2 = 0.5348): 4.198 ± 0.044 mPa·s
viscosity (298.15 K, 101.33 kPa, x2 = 0.576): 4.576 ± 0.049 mPa·s
viscosity (298.15 K, 101.33 kPa, x2 = 0.6201): 4.978 ± 0.054 mPa·s
viscosity (298.15 K, 101.33 kPa, x2 = 0.6577): 5.357 ± 0.058 mPa·s
viscosity (298.15 K, 101.33 kPa, x2 = 0.7089): 5.881 ± 0.064 mPa·s
viscosity (298.15 K, 101.33 kPa, x2 = 0.7558): 6.354 ± 0.07 mPa·s
viscosity (298.15 K, 101.33 kPa, x2 = 0.8037): 6.872 ± 0.077 mPa·s
viscosity (298.15 K, 101.33 kPa, x2 = 0.8566): 7.45 ± 0.085 mPa·s
viscosity (298.15 K, 101.33 kPa, x2 = 0.9013): 7.964 ± 0.091 mPa·s
viscosity (298.15 K, 101.33 kPa, x2 = 0.9283): 8.26 ± 0.096 mPa·s
viscosity (298.15 K, 101.33 kPa, x2 = 0.9521): 8.528 ± 0.099 mPa·s
viscosity (298.15 K, 101.33 kPa, x2 = 0.9738): 8.793 ± 0.1 mPa·s
